Source: patent US7811797B2, “α-isomaltosylglucosaccharide-forming enzyme, process and uses of the same” (Kabushiki Kaisha Hayashibara Seibutsu Kagaku Kenkyujo, priority 2000, dated 2010)

How the values were obtained:
[1] = system: Clostridium perfringens JCM 3816; format: cell-based; settings: PYF medium with 0.5% saccharide, 37° C., four days, anaerobic
[2] = system: Lactobacillus acidophilus JCM 1132; experiment: Assimilation test, Lactobacillus acidophilus; format: cell-based; settings: PYF medium with 0.5% saccharide, 37° C., four days, anaerobic
[3] = system: α-isomaltosylglucosaccharide-forming enzyme; experiment: Action on saccharides (substrates), Enzyme of Strain N75; format: biochemical, Bacillus globisporus N75; set-up: key: −: it showed no change; +: it showed a slight reduction of the color spot of the substrate and the formation of other reaction product; ++: it showed a high reduction of the color spot of the substrate and the formation of other reaction product; +++: it showed a substantial disappearance of the substrate spot and the formation of other reaction product; settings: two units/g substrate, substrate 2% (w/v), 30° C., pH 6.0, 24 hours, TLC
Summary of the method: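 Purified enzyme from each strain was added at 2 units/g substrate to each of 24 saccharides at 2% (w/v). Incubation ran 24 h at 30° C, pH 6.0, or pH 8.4 for the A19 enzyme. TLC compared reaction mixtures before and after incubation to show whether each substrate was acted on.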

[4] = system: α-isomaltosylglucosaccharide-forming enzyme; experiment: Transfer-acceptor specificity, Enzyme of Strain C9; format: biochemical, Bacillus globisporus C9; settings: acceptor 1.6%, PINE-DEX #100 donor 4%, one unit/g donor, 30° C., pH 6.0, 24 hours
Summary of the method: (§1)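 Each candidate acceptor at 1.6% was combined with 4% partial starch hydrolysate donor and 1 unit/g donor (d.s.b.) of purified enzyme. Incubation ran 24 h at 30 °C, pH 6.0 for the C9, C11 and N75 enzymes and pH 8.4 for A19. Transfer products were detected by GLC for mono- and disaccharide acceptors and HPLC for trisaccharide acceptors.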

[5] = system: α-isomaltosylglucosaccharide-forming enzyme; experiment: Transfer-acceptor specificity, Enzyme of Strain A19; format: biochemical, Arthrobacter globiformis A19; settings: acceptor 1.6%, PINE-DEX #100 donor 4%, one unit/g donor, 30° C., pH 8.4, 24 hours
Summary of the method: as §1

Salivary amylase = molecular target: T1, Salivary amylase (Homo sapiens, UniProt P0DUB6); experiment: Digestion test in vitro, salivary amylase
T1 sequence (P0DUB6 16-511): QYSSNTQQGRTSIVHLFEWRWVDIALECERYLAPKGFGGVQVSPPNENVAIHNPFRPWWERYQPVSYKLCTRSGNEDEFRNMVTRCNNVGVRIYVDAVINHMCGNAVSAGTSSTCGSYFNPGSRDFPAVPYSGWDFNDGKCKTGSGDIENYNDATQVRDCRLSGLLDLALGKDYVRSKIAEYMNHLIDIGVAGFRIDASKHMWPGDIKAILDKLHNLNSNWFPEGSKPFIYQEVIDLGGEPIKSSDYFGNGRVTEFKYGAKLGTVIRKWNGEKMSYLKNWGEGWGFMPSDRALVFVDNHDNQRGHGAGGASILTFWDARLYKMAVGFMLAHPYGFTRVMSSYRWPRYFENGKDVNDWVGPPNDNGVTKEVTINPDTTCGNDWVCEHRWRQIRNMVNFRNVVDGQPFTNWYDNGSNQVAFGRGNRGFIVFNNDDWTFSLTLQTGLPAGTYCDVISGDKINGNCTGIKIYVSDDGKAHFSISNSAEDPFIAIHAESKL

Row | SMILES | Assimilability [1] | Assimilability [2] | Enzymatic action, Enzyme of Strain N75 [3] | Product of transferring reaction, Enzyme of Strain C9 [4] | Product of transferring reaction, Enzyme of Stain A19 [5] | Decomposition percentage (%) by digestive enzyme (Salivary amylase) [%]
1 | OCC1OC2OCC3O[C@H](O[C@H]4C(O)C(CO)OC(OCC5O[C@H](O[C@@H](C1O)C2O)C(O)C(O)[C@@H]5O)C4O)C(O)C(O)[C@@H]3O (stereo partly drawn) [Cyclotetrasaccharide, cyclo{→6)-α-D-glucopyranosyl-(1→3)-α-D-glucopyranosyl-(1→6)-α-D-glucopyranosyl-(1→3)-α-D-glucopyransoyl-(1→}] | − (judged negative (−) when the post culture had a pH of 6.0 or higher) | − (judged negative (−) when the post culture had a pH of 6.0 or higher) |  |  |  | 
2 | OC[C@@H](O)[C@@H](O[C@H]1O[C@H](CO)[C@@H](O)[C@H](O)[C@H]1O)[C@H](O)[C@@H](O)CO [Maltitol, reference compound] |  |  | − | ++ (a saccharide-transferred product was detected in an amount over ten percent through transfer reaction to acceptor) | ++ (a saccharide-transferred product was detected in an amount over ten percent through transfer reaction to acceptor) | 0.0
